Laboratory results from ChEMBL document CHEMBL1132315, “Pharmacophore models of group I and group II metabotropic glutamate receptor agonists. Analysis of conformational, steric, and topological parameters affecting potency and selectivity” (J Med Chem, 1999).

What was measured:
[1] = The effective concentration for 50% glutamate response was measured on Group II Metabotropic glutamate receptor; type: functional
[2] = The effective concentration for 50% glutamate response was measured on Group I Metabotropic glutamate receptor; type: functional
[3] = (§1) Percentage of glutamate maximal response was measured on Group II Metabotropic glutamate receptor; type: functional
[4] = Percent glutamate response was measured on group 1 Metabotropic Glutamate Receptors
[5] = as §1; type: functional; remark: listed apart in the source

Row | EC50 [1] [µM] | EC50 [2] [µM] | EC50 [3] [µM] | Response [4] [%] | Response [5] [%] | SMILES
1 | – | – | 0.1 | – | – | NC(C(=O)O)C1[C@@H](C(=O)O)[C@@H]1C(=O)O (stereo not given in full)
2 | – | 6.6 | – | – | – | N[C@H](C(=O)O)c1cc(O)cc(O)c1
3 | 3.5 | > 1000 | – | – | – | N[C@@]1(C(=O)O)CN[C@@H](C(=O)O)C1
4 | – | – | – | – | < 15 | N[C@H](C(=O)O)c1cccc(O)c1
5 | 0.3 | 5 | – | – | – | N[C@@H](C(=O)O)[C@H]1CC1C(=O)O (single isomer, unassigned)
6 | – | 20 | – | – | – | N[C@@H](C(=O)O)[C@@H]1CC1C(=O)O (single isomer, unassigned)
7 | 0.032 | > 1000 | – | – | – | N[C@@]1(C(=O)O)CC[C@H]2[C@H](C(=O)O)[C@H]21 [EGLUMETAD]
8 | 0.29 | 4.9 | – | – | – | N[C@@H](CCC(=O)O)C(=O)O [GLUTAMIC ACID]

Continued, molecule first:

Row | SMILES | EC50 [1] [µM] | EC50 [2] [µM] | EC50 [3] [µM] | Response [4] [%] | Response [5] [%]
9 | N[C@@]1(C(=O)O)CC[C@H](C(=O)O)C1 | 13 | > 300 | – | – | –
10 | N[C@@]1(C(=O)O)CC[C@@H](C(=O)O)C1 | 18 | 9.3 | – | – | –
11 | N[C@]1(C(=O)O)CC[C@H](C(=O)O)C1 | 110 | 127 | – | – | –
12 | NC1(C(=O)O)C2CCC1C(C(=O)O)C2 (stereo not given) | – | – | 30 | 10 | –
13 | O=C(O)[C@H]1C[C@H](C(=O)O)N1 | > 100 | 189 | – | – | –
14 | NC1(C(=O)O)CC2CCC1C2C(=O)O (stereo in doubt; 8) | – | – | – | – | 50
15 | NC1(C(=O)O)CC2CCC1C2C(=O)O (stereo in doubt; 9) | – | – | – | 12 | 50
16 | NC1(C(=O)O)CC2CC1C2C(=O)O (stereo in doubt; 12) | 0.33 | 1.6 | – | – | –
17 | NC1(C(=O)O)CC2CC1C2C(=O)O (stereo in doubt; 21) | 54 | 121 | – | – | –
18 | NC1(C(=O)O)CC2CC1C2C(=O)O (stereo in doubt; 22) | 38 | 232 | – | – | –
19 | N[C@H](C(=O)O)c1cc(O)no1 [IBOTENIC ACID] | 50 | 6 | – | – | –
20 | N[C@@H](Cn1oc(=O)[nH]c1=O)C(=O)O [QUISQUALATE] | 100 | 0.9 | – | – | –
